Measurements: patent US20140243195A1, “N-Thio-anthranilamide compounds and their use as pesticides” (BASF SE, priority 2011, published 2014)

How the values were obtained:
Type in all cases: in vivo
[1] = tested on: Cowpea Aphid (Aphis craccivora); assay: Cowpea aphid (Aphis craccivora) spray test on potted cowpea plants; conditions: assessed after 72 hours, in comparison with untreated controls
Procedure: The active compound was dissolved at the desired concentration in a mixture of 1:1 (vol:vol) distilled water:acetone. Surfactant (Alkamuls® EL 620) is added at a rate of 0.1% (vol/vol). The test solution was prepared at the day of use.
Potted cowpea plants were colonized with approximately 50-100 aphids of various stages by manually transferring a leaf tissue cut from infested plant 24 hours before application. Plants were sprayed after the pest population has been recorded. Treated plants were maintained on light carts at about 28° C. Percent mortality was assessed after 72 hours.

[2] = tested on: Diamond Back Moth (Plutella xylostella); assay: Diamond back moth (Plutella xylostella) cabbage leaf dip test; conditions: foliar, 3rd instar larvae, 72 hours after treatment, in comparison with untreated controls
Procedure: The active compound was dissolved at the desired concentration in a mixture of 1:1 (vol:vol) distilled water:acetone. Surfactant (Alkamuls® EL 620) is added at a rate of 0.1% (vol/vol).The test solution was prepared at the day of use.
Leaves of cabbage were dipped in test solution and air-dried. Treated leaves were placed in petri dishes lined with moist filter paper and inoculated with ten 3rd instar larvae. Mortality was recorded 72 hours after treatment. Feeding damages were also recorded using a scale of 0-100%.

[3] = tested on: Mediterranean Fruitfly (Ceratitis capitata); assay: Mediterranean fruitfly (Ceratitis capitata) microtiter plate insect diet test; conditions: 120 h, egg and larval mortality after 5 days, in comparison with untreated controls
Procedure: For evaluating control of Mediterranean fruitfly (Ceratitis capitata) the test unit consisted of microtiter plates containing an insect diet and 50-80 C. capitata eggs.
(§1) The compounds were formulated using a solution containing 75% v/v water and 25% v/v DMSO. Different concentrations of formulated compounds were sprayed onto the insect diet at 5 μl, using a custom built micro atomizer, at two replications.
After application, microtiter plates were incubated at about 28±1° C. and about 80±5% relative humidity for 5 days. Egg and larval mortality was then visually assessed.

[4] = tested on: Orchid Thrips (Dichromothrips corbetti); assay: Orchid thrips (Dichromothrips corbetti) floral-immersion test; conditions: adult thrips, 72 hours after treatment, in comparison with untreated controls
Procedure: Dichromothrips corbetti adults used for bioassay were obtained from a colony maintained continuously under laboratory conditions. For testing purposes, the test compound was diluted in a 1:1 mixture of acetone:water (vol:vol), plus 0.01% vol/vol Alkamuls® EL 620 surfactant.
Thrips potency of each compound was evaluated by using a floral-immersion technique. Plastic petri dishes were used as test arenas. All petals of individual, intact orchid flowers were dipped into treatment solution and allowed to dry. Treated flowers were placed into individual petri dishes along with—about 20 adult thrips. The petri dishes were then covered with lids. All test arenas were held under continuous light and a temperature of about 28° C. for duration of the assay. After 3 days, the numbers of live thrips were counted on each flower, and along inner walls of each petri dish. The percent mortality was recorded 72 hours after treatment.

[5] = tested on: Southern Armyworm (Spodoptera eridania); assay: Southern armyworm (Spodoptera eridania) spray test on lima bean plants; conditions: 96 h, larvae, 4 days after treatment, in comparison with untreated controls
Procedure: (§2) The active compounds were formulated in cyclohexanone as a 10,000 ppm solution supplied in tubes. The tubes were inserted into an automated electrostatic sprayer equipped with an atomizing nozzle and they served as stock solutions for which lower dilutions were made in 50% acetone:50% water (v/v). A nonionic surfactant (Kinetic®) was included in the solution at a volume of 0.01% (v/v).
(§3) Lima bean plants (variety Sieva) were grown 2 plants to a pot and selected for treatment at the 1st true leaf stage. Test solutions were sprayed onto the foliage by an automated electrostatic plant sprayer equipped with an atomizing spray nozzle. The plants were dried in the sprayer fume hood and then removed from the sprayer. Each pot was placed into perforated plastic bags with a zip closure. About 10 to 11 armyworm larvae were placed into the bag and the bags zipped closed. Test plants were maintained in a growth room at about 25° C. and about 20-40% relative humidity for 4 days, avoiding direct exposure to fluorescent light (24 hour photoperiod) to prevent trapping of heat inside the bags. Mortality and reduced feeding were assessed 4 days after treatment, compared to untreated control plants.

[6] = tested on: Vetch Aphid (Megoura viciae); assay: Vetch aphid (Megoura viciae) broad bean leaf disk microtiter test; conditions: foliar, 120 h, adult aphids, after 5 days, in comparison with untreated controls
Procedure: For evaluating control of vetch aphid (Megoura viciae) through contact or systemic means the test unit consisted of 24-well-microtiter plates containing broad bean leaf disks.
The compounds were formulated using a solution containing 75% v/v water and 25% v/v DMSO. Different concentrations of formulated compounds were sprayed onto the leaf disks at 2.5 μl, using a custom built micro atomizer, at two replications.
After application, the leaf disks were air-dried and 5-8 adult aphids placed on the leaf disks inside the microtiter plate wells. The aphids were then allowed to suck on the treated leaf disks and incubated at about 23±1° C. and about 50±5% relative humidity for 5 days. Aphid mortality and fecundity was then visually assessed.

[7] = tested on: Tobacco Budworm (Heliothis virescens); assay: Tobacco budworm (Heliothis virescens) I spray test on cotton plants; conditions: 96 h, larvae, 4 days after treatment, in comparison with untreated controls
Procedure: as §2
as §3, with “Cotton” for “Lima bean”, “plants” for “plants (variety Sieva)”, “cotyledon” for “1st true leaf”, “budworm” for “armyworm”

[8] = tested on: Boll Weevil (Anthonomus grandis); assay: Boll weevil (Anthonomus grandis) microtiter plate insect diet test; conditions: 120 h, egg and larval mortality after 5 days, in comparison with untreated controls
Procedure: For evaluating control of boll weevil (Anthonomus grandis) the test unit consisted of 96-well-microtiter plates containing an insect diet and 5-10 A. grandis eggs.
as §1
After application, microtiter plates were incubated at about 25±1° C. and about 75±5% relative humidity for 5 days. Egg and larval mortality was then visually assessed.

[9] = tested on: Colorado Potato Beetle (Leptinotarsa decemlineata); assay: Colorado potato beetle (Leptinotarsa decemlineata) spray test on eggplant foliage; conditions: foliar, 96 h, beetle larvae, 4 days after treatment, in comparison with untreated controls
Procedure: as §2
Eggplants were grown 2 plants to a pot and were selected for treatment at the 1st true leaf stage. Test solutions were sprayed onto the foliage by an automated electrostatic plant sprayer equipped with an atomizing spray nozzle. The plants were dried in the sprayer fume hood and then removed from the sprayer. The treated foliage was then cut and removed from the pot and placed in a Petri dish lined with moistened filter paper. Five beetle larvae were introduced into each Petri dish and the dish was covered by a Petri dish lid. Petri dishes were maintained in a growth room at about 25° C. and about 20-40% relative humidity for 4 days, avoiding direct exposure to fluorescent light (24 hour photoperiod) to prevent trapping of heat inside the dishes. Mortality and reduced feeding were assessed 4 days after treatment, compared to untreated control plants.

Cc1cc(Cl)cc(C(=O)N=S2CCCC2)c1NC(=O)c1ccc(C(F)(F)F)cc1-c1ncccc1Cl [Compound 1-7, 5-chloro-2-[[2-(3-chloro-2-pyridyl)-4-(trifluoromethyl)benzoyl]amino]-3-methyl-N-(thiolan-1-ylidene)benzamide]
≥ 75%: mortality at 300 ppm [1] | mortality at 300 ppm [2] | mortality at 2500 ppm [3] | mortality at 500 ppm [4] | mortality at 300 ppm [5] | mortality at 2500 ppm [6] | mortality at 2500 ppm [7] | mortality at 2500 ppm [8] | mortality at 10 ppm [9]
